“And” between values parts separate entries of the source, which are not always exact repeats. Equal entries are not always repeated.

In this assay the target is SARS-CoV-2 Main Protease (SARS-CoV-2) (UniProt P0DTD1).
In the case of `O=C(CN(C(=O)Cc1cccnc1)c1ccc(-c2ncccn2)cc1)N1CCNCC1`, the IC50 was greater than 99.5 µM.
In the case of `CC(=O)Nc1ccc(Nc2cc(Cl)cc(CC(=O)Nc3cncc4ccccc34)c2)c(C(F)(F)F)c1` it was 2.09 µM; in that of `O=C(Nc1cnn2ccccc12)C1CCS(=O)(=O)c2ccc(Cl)cc21` (stereo not given), 3.89 µM.
`COc1cc(Cl)cc(CC(=O)Nc2cnccc2C)c1` had an IC50 of 36.8 µM.
As for `CC(C)(C)c1ccc(N(C(=O)c2ccns2)C(C(=O)NCCc2cccc(F)c2)c2cccnc2)cc1` (stereo not given), the concentration for half-maximal inhibition (IC50) was found to be 51.1 µM.
In the case of `NCc1cn(CC(=O)N(Cc2cscn2)c2ccc(-c3ccccc3)nc2)nn1` it was greater than 99.5 µM; in that of `N#CCC(=O)N1CCc2ccc(Cl)cc2C1C(=O)Nc1cncc2ccccc12` (stereo not given), 6.51 µM; in that of `O=C(Cc1cccc(Cl)c1)Nc1c(O)cnc2ccccc12`, 8.44 µM.
For `Nc1cncc2c1CCCN2C(=O)Cc1cccc(Cl)c1`, the IC50 is 25.5 µM and 41.4 µM.
The molecule `O=C(Cc1cc(Cl)cc(NCc2ccc(Oc3ccccc3)cc2)c1)Nc1cncc2ccccc12` came in with an IC50 of 5.82 µM.
In the case of `O=C(Cc1cccc(Cl)c1)Nc1cncc2nc[nH]c12` it was 13.3 µM.
In the case of `CN(C)C(=O)CN1CC(C(=O)Nc2cncc3ccccc23)c2cc(Cl)ccc2C1=O` (stereo not given), the IC50 turned out to be 0.734 µM.
In the case of `CNC(=O)CN1CC(C)(C(=O)Nc2cncc3cc(F)ccc23)c2cc(Cl)ccc2S1(=O)=O` (stereo not given) it was 0.248 µM.
The figure for `O=C(Nc1cncc2ccccc12)C(NC[C@@H]1CC[C@H](C(=O)N2CCCC2)O1)c1cccc(Cl)c1` (stereo in doubt) is 2.77 µM; for `Cc1sc(Nc2cc(Cl)cc(CC(=O)Nc3cncc4ccccc34)c2)nc1-c1ccc(Cl)cc1` it is 2.82 µM; for `Cc1ccncc1C(C(=O)NCCc1cccc(F)c1)N(C(=O)c1cocn1)c1ccc(C(C)(C)C)cc1` (stereo not given) it is 0.653 µM.
As for `Cn1ncc(S(=O)(=O)N2Cc3ccc(Cl)cc3C(C(=O)Nc3cncc4ccccc34)C2)n1` (stereo not given), the 50% inhibitory concentration (IC50) is 0.268 µM.
`Cc1ccc(-n2c(C)c(C)n3c4c(=O)n(CCCO)c(=O)n(C)c4nc23)cc1Cl` displayed an IC50 greater than 99.5 µM.
`O=C1CCCN1Cc1cccc(C(=O)N2CCC(C3CCNC3)CC2)c1` (stereo not given) gave a concentration for half-maximal inhibition (IC50) greater than 99.5 µM.
In the case of `COC(=O)[C@H]1C[C@H](NC(=O)C(c2cccnc2)N(C(=O)c2cocn2)c2ccc(C(C)(C)C)cc2)CN1C(=O)OC(C)(C)C` (stereo in doubt) it was 0.837 µM; in that of `Cc1ccncc1NC(=O)Cc1cccc(C#N)c1`, 63.7 µM and 59 µM.
The molecule `O=C(c1ccc2nc(C(F)F)[nH]c2c1)N1CCC(C2CCNC2)CC1` (stereo not given) showed an IC50 greater than 99.5 µM.
In the case of `N#CC1(CS(=O)(=O)N2Cc3ccc(Cl)cc3[C@@H](C(=O)Nc3cncc4ccccc34)C2)CNC1` (stereo in doubt) it was 1.62 µM; in that of `CC1CN(C)CCN1C(=O)CC1(C(=O)Nc2cncc3ccccc23)CCOc2ccc(Cl)cc21` (stereo not given), 7.87 µM and 4.85 µM; in that of `COC(=O)CN1Cc2ccc(Cl)cc2C(C(=O)Nc2cncc3ccccc23)C1` (stereo not given), 1.55 µM.
The figure for `Cn1cncc1C(=O)N1Cc2ccc(Cl)cc2C(C(=O)Nc2cncc3ccccc23)C1` (stereo not given) is 0.224 µM; for `O=C(Cc1cc(Cl)cc(N2CCC(C(F)(F)F)CC2)c1)Nc1cncc2ccccc12` it is 1.43 µM.
In the case of `CC(C)(C)c1ccc(N(C(=O)c2cc(=O)[nH][nH]2)C(C(=O)NCCc2cccc(F)c2)c2cccnc2)cc1` (stereo not given) it was 39.7 µM; in that of `O=C(Nc1cncc2ccccc12)C1(CCC2CC2)CCOc2ccc(Cl)cc21` (stereo not given), 40.7 µM.
As for `Cc1ccncc1NC(=O)Cc1cc(Cl)cc(OCc2ncc[nH]2)c1`, the IC50 was greater than 99.5 µM.
For `CS(=O)(=O)N1CCc2ccc(Cl)cc2C1C(=O)Nc1cncc2ccccc12` (stereo not given), the IC50 came out at 1.6 µM.
In the case of `CNC(=O)C1(CC(=O)Nc2cncc3ccccc23)CCOc2ccc(Cl)cc21` (stereo not given) it was 30.7 µM; in that of `O=C(Cn1nnc2ccccc21)N(Cc1ccsc1)c1ccc(N2CCOCC2)cc1`, 11.6 µM.
The figure for `O=CNc1ccc(C(=O)NC(c2ccccc2)C2CCOCC2)cc1` (stereo not given) is greater than 99.5 µM.
In the case of `O=C(CC1(C(=O)Nc2cncc3ccccc23)CCOc2ccc(Cl)cc21)Nc1nnco1` (stereo not given) it was greater than 99.5 µM.
With `O=C(Cc1cccc(Cl)c1)Nc1ncnc2ccccc12`, the 50% inhibitory concentration (IC50) is greater than 99.5 µM.
In the case of `O=C(Cc1cc(Cl)cc(N2CCN(C(=O)OCc3ccccc3)CC2)c1)Nc1cncc2ccccc12` it was 2.23 µM.
The figure for `O=C(c1ccc2nnnn2c1)N1CCn2c(cc3ccccc32)C1` is greater than 99.5 µM.
As for `O=C(Nc1cncc2cc(CN3CCNCC3)ccc12)C1CCOc2ccc(Cl)cc21` (stereo not given), the IC50 was determined as 1.83 µM.
As to `O=C(Cc1cc(Cl)cc(Nc2cc(Cl)ccc2Br)c1)Nc1cncc2ccccc12`, the IC50 was 2.1 µM.
With `O=C(Cc1cc(Cl)cc(Nc2cccc(I)c2)c1)Nc1cncc2ccccc12`, the IC50 was determined as 2.22 µM.
The molecule `CC1(NC(=O)CN2Cc3ccc(Cl)cc3C3(CCN(c4cncc5ccccc45)C3=O)C2)CC1` (stereo not given) registered an IC50 of 0.271 µM.
In turn, `Cc1ccc(N(C(=O)c2cocn2)C(C(=O)NCCc2cccc(F)c2)c2cccnc2)cc1` (stereo not given) displayed an IC50 of 50.2 µM.
In the case of `O=C(Nc1cncc2ccccc12)N1CCOc2ccc(Cl)cc21` it was 11.4 µM; in that of `CS(=O)(=O)c1ccc2c(N3CCC4(CN(S(=O)(=O)CC5(C#N)CC5)Cc5ccc(Cl)cc54)C3=O)cncc2c1` (stereo not given), 0.103 µM; in that of `CC(CCC(OC1OC(COC2OC(CO)C(O)C(O)C2O)C(O)C(O)C1O)C(C)(C)O)C1CCC2(C)C3CC=C4C(CCC(O)C4(C)C)C3(C)C(O)CC12C` (stereo not given), greater than 99.5 µM.
Take `Cc1noc(C)c1CCNC(=O)Nc1cn(CC(C)C)c(=O)c2ccccc12`: the IC50 worked out at 27.7 µM.
As to `CC(C)(C)c1cnc(N(C(=O)c2ccco2)C(C(=O)NCCc2cccc(F)c2)c2cccnc2)s1` (stereo not given), the IC50 is 3.94 µM.
The figure for `N#CC1(CS(=O)(=O)N2Cc3ccc(Cl)cc3C(C(=O)Nc3cncc4cc(Cl)ccc34)C2)CC1` (stereo not given) is 0.283 µM; for `CC(C)(C)c1ccc(N(C(=O)c2cocn2)C(C(=O)NCCN2CCOCC2)c2cccnc2)cc1` (stereo not given) it is 82.5 µM.
In the case of `CNC1CCc2c(NC(=O)C3CCOc4ccc(Cl)cc43)cncc21` (stereo not given) it was greater than 99.5 µM; in that of `O=C(Cc1ccccc1Cl)Nc1cncc2ccccc12`, greater than 99.5 µM; in that of `COC(=O)[C@H]1C[C@@H](NC(=O)C(c2cccnc2)N(C(=O)c2cocn2)c2ccc(C(C)(C)C)cc2)CN1C(=O)OC(C)(C)C` (stereo in doubt), 5.32 µM.
In the case of `O=C(Cc1cccc(Cl)c1)Nc1cn[nH]c1` it was greater than 99.5 µM; in that of `O=c1c(O[C@@H]2O[C@H](CO)[C@H](O)[C@H](O)[C@H]2O)c(-c2ccc(O)c(O)c2)oc2cc(O)cc(O)c12` (stereo in doubt), greater than 99.5 µM.
As to `O=C(Cc1cc(Cl)cc(N2CCN(CCc3ccccc3)CC2)c1)Nc1cncc2ccccc12`, the IC50 came out at 5.02 µM.
For `CC(C)(C)c1ccc(N(C(=O)c2ccnc(N3CCOCC3)n2)C(C(=O)NCCc2cccc(F)c2)c2cccnc2)cc1` (stereo not given), the IC50 is greater than 99.5 µM.
On to `N#CCc1cccc(NC(=O)c2cnn3cc(Br)cnc23)n1`, for which the half-maximal inhibitory concentration (IC50) is greater than 99.5 µM.
The figure for `COc1ccn2c(NC(=O)Cc3cccc(Cl)c3)cnc2c1` is greater than 99.5 µM.
With `N#Cc1ccc2c(NC(=O)Cc3cccc(Cl)c3)cncc2c1`, the IC50 was 9 µM.
In the case of `CCS(=O)(=O)c1cc(Cl)cc(CNS(=O)(=O)c2cccs2)c1` it was greater than 99.5 µM.
In the case of `Cc1c(Br)cnc(Nc2cc(Cl)cc(CC(=O)Nc3cncc4ccccc34)c2)c1[N+](=O)[O-]` it was 2.17 µM; in that of `Cn1c(=O)[nH]c(=O)c2ccc(C(=O)N(c3ccc(C(C)(C)C)cc3)C(C(=O)NCCc3cccc(F)c3)c3cccnc3)nc21` (stereo not given), greater than 99.5 µM; in that of `Cc1ccc2nc(Nc3cc(Cl)cc(CC(=O)Nc4cncc5ccccc45)c3)sc2c1`, 22.9 µM.
`C=CC(=O)NCC(=O)N(CCN1CCOCC1)Cc1sccc1Br` had an IC50 greater than 99.5 µM.
In the case of `Cc1[nH]c2ccccc2c1/C=N/c1sc2c(c1C#N)CCC(C)C2` (stereo not given) it was greater than 99.5 µM; in that of `COc1ccc(C2CC(c3ccccc3)=NN2C(=O)CCl)cc1OC` (stereo not given), 0.543 µM; in that of `CS(=O)(=O)N1CCc2ccc(CN3CCN(C(=O)CCl)CC3)cc2C1`, 40.2 µM.
The figure for `O=C(Cc1cc(Cl)cc(Nc2ccc(O)cc2[N+](=O)[O-])c1)Nc1cncc2ccccc12` is 5.33 µM; for `CS(=O)(=O)c1ncc(Cl)c(C(=O)Nc2ccccc2Cc2ccccc2)n1` it is 0.469 µM and 0.54 µM.
Consider `CCN(c1ccccc1)S(=O)(=O)c1ccc(OC)c(NC(=O)CCl)c1`, for which the IC50 amounted to 3.23 µM.
The figure for `CNC(=O)CN1CC(C(=O)Nc2cncc3ccc(S(C)(=O)=O)cc23)c2cc(Cl)ccc2C1=O` (stereo not given) is 0.33 µM.
In the case of `COc1ccc(C(Cc2ccsc2)C(=O)Nc2n[nH]c3ccccc23)cc1` (stereo not given) it was greater than 99.5 µM; in that of `CC(C)(C)NC(=O)CN1CC(C(=O)Nc2cncc3cc(S(C)(=O)=O)ccc23)c2cc(Cl)ccc2C1=O` (stereo not given), 0.248 µM; in that of `O=C(NCCc1cccc(F)c1)C(c1cccnc1)N(C(=O)c1cnc[nH]1)c1ccc2c(c1)CCC(=O)N2CC(F)F` (stereo not given), 47.8 µM.
`C=CC(=O)Nc1ccc(O)c(C(=O)NC[C@@H](O)c2ccc3ccccc3c2)c1` (stereo in doubt) came in with an IC50 greater than 99.5 µM.
The figure for `Cc1ccncc1NC(=O)Cc1cc(Cl)cc(OCc2n[nH]c3ccccc23)c1` is greater than 99.5 µM.
The figure for `CCOC(=O)c1c(C)n(S(C)(=O)=O)c2ccc(N(C(=O)c3ccco3)S(C)(=O)=O)cc12` is 0.282 µM; for `O=C(c1cc(=O)[nH]c2ccccc12)N1CCN(c2cccc(Cl)c2)C(=O)C1` it is 15.8 µM; for `COc1ccc(N(C(=O)c2cnc[nH]2)C(C(=O)NCCc2cccc(F)c2)c2cccnc2)cc1` (stereo not given) it is 93.7 µM.
In the case of `Cc1ccc(S(=O)(=O)N2CCN(C(=O)CCl)C[C@H]2C(=O)NC2CCCCC2)cc1` (stereo in doubt) it was 4.48 µM; in that of `O=C(Cc1cc(Cl)cc(N2CCC(Cc3ccccc3)CC2)c1)Nc1cncc2ccccc12`, 3.35 µM.
Molecule `O=C(Cc1cc(Cl)cc(Nc2cc(Cl)cc(Cl)c2O)c1)Nc1cncc2ccccc12` yielded a half-inhibitory concentration (IC50) of 9.19 µM.
In the case of `CN1CCN(C2CCN(c3cc(Cl)cc(CC(=O)Nc4cncc5ccccc45)c3)CC2)CC1` it was 4.56 µM; in that of `Cn1cc(C(=O)N(c2ccc(C(C)(C)C)cc2)C(C(=O)NCCc2cccc(F)c2)c2cccnc2)n(C)c1=O` (stereo not given), greater than 99.5 µM.

For the origin of these results see the COVID Moonshot data (paper PMC7615835).
